Key:
[1] = Preformulation hygroscopicity study of bulk drug (water uptake, Karl Fischer); assay type: physicochemical; conditions: for water absorbed by Karl Fischer: after 48 hours of storage; for water absorbed: 75% RH
Method: (§1) Preformulation studies of swainsonine hydrochloride, bulk drug substance, and in combination with powder and semisolid fill gelatin capsules were conducted with respect to the following: hygroscopicity, pH, stability, and solubility. […] At 20% and 50% RH it absorbed 1.9% and 2.1% of water by Karl Fischer after 48 hours of storage. The moisture uptake diminishes when anhydrous powder excipients (e.g. lactose anhydrous and mannitol powder) are used to formulate the pharmaceutical active into a hard capsule.

[2] = Preformulation solubility in vehicles; assay type: physicochemical
Method: as §1
Therefore for soft gelatin capsule formulations hydrophilic vehicles are preferred. The use of a co-solvent such as glycerin or propylene glycol in PEGs may be feasible for liquid or semisolid fills.

[3] = Preformulation pH stability study in buffered solutions; assay type: physicochemical; conditions: pH 4 and 7, ambient and stressed (40° C. and 50° C.) storage
Method: as §1

[4] = tested on: STAT3; experiment: STAT3 level in mice (Western blot); assay type: in vivo, DBA/2 mice; conditions: 20 μg/day ip, spleen
Method: To measure the level and activation of STATs, DBA/2 mice are treated for 6-9 days with 20 μg/mouse/day of swainsonine hydrochloride followed by a single intraperitoneal (i.p) injection of either sterile saline or 100 μg of poly IC (i.e., dsRNA, a surrogate for virus) in sterile saline. Two hours later an optimal time for STAT activation, spleens of the mice are homogenized and cytosolic and nuclear cell extracts are prepared. STAT protein levels are measured in the cytosolic and nuclear fractions by Western blot analysis. STAT phosphorylation (i.e. activation) is measured following immunoprecipitation using anti-phosphotyrosine antibodies.

## Cl.O[C@H]1[C@H]2[C@H](O)CCCN2C[C@@H]1O [swainsonine hydrochloride, (−)-(1S,2S,8R,8aR)-1,2,8-trihydroxyoctahydro-indolizidine hydrochloride salt]
[1]; 20% RH
  water absorbed by Karl Fischer: 1.9%
[1]; 50% RH
  water absorbed by Karl Fischer: 2.1%
[1]; first 2 hours
  water absorbed: approximately 8 % (w/w)
[1]; first 8 hours
  water absorbed: ~24 % (w/w)
[1]; bulk drug
  hygroscopicity: highly hygroscopic
[2]
  solubility in aqueous and hydrophilic vehicles: highly soluble
[3]
  stability in buffered solutions: stable
[4]
  STAT3 cytosolic protein levels: remained unchanged
